Measurements: patent US20240287135A1, “ANTIMICROBIAL PEPTIDE OR PEPTIDE DERIVATIVE, SUBSTITUTE, AND COMPOSITION THEREOF, AND PREPARATION METHOD AND APPLICATION OF COMPOSITION” (QC BIO-TECHNOLOGY (SHENZHEN) CO., LTD., priority 2021, published 2024)
Ends that are not written are not given here.

Experiments:
oral bacteria = assay: Inhibition on oral bacteria (mouthwash from the elderly, sheep blood agar); assay type: cell-based; conditions: 30 min, anaerobic 37 °C 4 d
Method: Mouthwash was taken from the elderly and divided into 4 parts of equal amounts, and the 4 parts each were mixed with a solution of 2 mg/mL SEQ ID NO: 8 at different amounts for 30 min and then evenly coated on plates with sheep blood agar, where A: PBS (control), B: 2 μL, C: 10 μL, and D: 20 μL; and resulting mixtures each were anaerobically cultivated at 37 °C for 4 d, and the number of colonies on each plate was observed.

RNA viruses = assay: Killing of the AMP for RNA viruses (RT-PCR after infection of 293T); assay type: cell-based; conditions: supernatant mixed with equal amount of 200 μg/mL AMP for 15 min; 293T infected 12 h; control 1.7×10^7
Method: The plasmids pNL4.3Δ, pVSV-G, p-enhancer, and lipo2000 each were used to transfect 293T, then the cells were cultivated at 37° ° C. for two days, a culture supernatant was taken and centrifuged to remove organelle impurities, and 500 μL of a cell supernatant was mixed with an equal amount of 200 μg/mL SEQ ID NO: 8 to allow a reaction for 15 min. In a control group, PBS was used instead of SEQ ID NO: 8. The filter centrifugation (Millipore Amicon Ultra-15) was used to remove the AMP, thereby eliminating a killing effect of the AMP itself on cells. A sample to be tested was used to infect the 293Tcell line, and then the cell line was cultivated at 37° C. for 12 h. The 293T cell line was recovered, and the RT-PCR method was used to determine the infection difference between live viruses for the cells. The control group and the experimental group had the same experimental environment, but the amino acid sequence of SEQ ID NO: 8 of the present application was added in the experimental group.

K562 cells = assay: Killing of the AMP for tumor cells (FCM PI kit); assay type: cell-based; conditions: 10 ng, 20 ng and 40 ng of AMP
Method: K562 cells were cultivated, a same amount of K562 cells was taken and mixed with 10 ng, 20 ng, and 40 ng of the AMP of SEQ ID NO: 8 to allow a reaction, and apoptotic cells were determined by a flow cytometry (FCM) PI kit.

E. coli = E. coli inhibition test (colony count on agarose plate); assay type: cell-based, Escherichia coli; conditions: for number of E. coli clones on plate: AMP 200 μg/mL mixed 1:1 with bacterial solution, 15 min room temperature, cultivated 37 °C 12 h, control 251 clones
Method: The 39 AMPs synthesized in Examples 1 to 39 each were subjected to an E. coli inhibition test. 30 μL of an E. coli bacterial solution was taken and mixed with 30 μL of each of the AMPs (concentration: 200 μg/mL), and 30 μL of a PBS isotonic solution was adopted to prepare a control; a reaction was allowed at room temperature for 15 min, and a resulting bacterial solution was evenly coated on an agarose plate and cultivated at 37 °C for 12 h; and the number of E. coli bacteria on each plate was counted and recorded.
In order to make the experimental results clearer, 6 experimental samples were taken for control analysis.

[1] = tested on: Jurkat cell line (leukemia lymphocytes); assay: Killing of the AMP for leukemia lymphocytes; assay type: cell-based; conditions: 20 μL of 1 μg/mL AMP, 10^5 cells, 10 min
Method: Jurkat cell line (leukemia lymphocytes) was taken. 20 μL of a solution of 1 μg/mL AMP of SEQ ID NO: 10 was mixed with 10^5 cells to allow a reaction for 10 min, and a resulting mixture was centrifuged at 1,000 rpm for 3 min.

Human RBCs = assay type: cell-based; conditions: 20 μL of 1 μg/mL AMP, 2% RBCs, 10 min
Method: Human RBCs were taken. 20 μL of a solution of 1 μg/mL AMP of SEQ ID NO: 27 was mixed with 2% RBCs to allow a reaction for 10 min, and a resulting mixture was centrifuged at 1,000 rpm for 3 min.

[2] = tested on: HypG2 cell line (liver cancer cells); assay: Killing of the AMP for liver cancer cells; assay type: cell-based; conditions: 20 μL of 1 μg/mL AMP, 10^5 cells, 10 min
Method: HypG2 cell line (liver cancer cells) was taken. 20 μL of a solution of 1 μg/mL AMP of SEQ ID NO: 15 was mixed with 10^5 cells to allow a reaction for 10 min, and a resulting mixture was centrifuged at 1,000 rpm for 3 min.

[3] = tested on: K562 cell line (leukemia cells); assay: Killing of the AMP for leukemia cells; assay type: cell-based; conditions: 20 μL of 1 μg/mL AMP, 10^5 cells, 10 min
Method: K562 cell line (leukemia cells) was taken. 20 μL of a solution of 1 μg/mL AMP of SEQ ID NO: 17 was mixed with 10^5 cells to allow a reaction for 10 min, and a resulting mixture was centrifuged at 1,000 rpm for 3 min.

HAMGNMLKIMASAVLVRH [SEQ ID NO: 8, HAMGNMLKIMASAVLVRH]
growth of oral bacteria on plate (oral bacteria; B: 2 μL of 2 mg/mL solution): a small number of bacteria grew
growth of oral bacteria on plate (oral bacteria; C: 10 μL of 2 mg/mL solution): no oral bacteria grew
growth of oral bacteria on plate (oral bacteria; D: 20 μL of 2 mg/mL solution): no oral bacteria grew
active viral copy (RNA viruses): 5×10^5
cell death (apoptotic cells, FCM PI) (K562 cells): cell death was proportional to the content of the AMP
number of E. coli clones on plate (E. coli): 1 E. coli clones
inhibitory effect on E. coli (E. coli; AMP 200 μg/mL, 15 min, plate count (FIG. 1)): most significant inhibitory effect

HAMPNMLRIMASAVLVKR (antimicrobial peptide, fully synthetic) [SEQ ID NO: 7]
number of E. coli clones on plate (E. coli): 216 E. coli clones

HKAVGNMLKIASAVLVHK (antimicrobial peptide, fully synthetic) [SEQ ID NO: 6]
number of E. coli clones on plate (E. coli): 226 E. coli clones

HKAVPNMLHIASAVLVRH (antimicrobial peptide, fully synthetic) [SEQ ID NO: 5]
number of E. coli clones on plate (E. coli): 236 E. coli clones

HKRAMPSIVKMIATLVLARKH (antimicrobial peptide, fully synthetic) [SEQ ID NO: 10]
effect on leukemia lymphocytes (image) [1]: leukemia lymphocytes clump, and some are broken

KAVPNMLKIMASLVLARH [SEQ ID NO: 27, KAVPNMLKIMASLVLARH]
clumping of RBCs (Human RBCs): human RBCs clump
hemolysis (Human RBCs): no obvious hemolysis

RAMPNMLRIMASLVLARKH [SEQ ID NO: 15]
effect on liver cancer cells (image) [2]: Liver cancer cells clump, and are broken and deformed

RHAMGQMLRIMASLVLARK [SEQ ID NO: 17]
effect on leukemia cells (image) [3]: leukemia cells clump
